pIC50: −log10 of the molar value.

Details of data set [1]: method as in Becker et al. [2011]. The conditions noted are these: PLATO study; ref Becker et al. [2011]; cited from earlier work.
On the set-up of data set [2]: method as in Teng and Butler [2013]. The conditions noted are these: concomitant use of ticagrelor; ref Teng and Butler [2013]; cited from earlier work.
On the set-up of data set [3]: method as in Butler and Teng [2011]. The conditions noted are these: oral administration of ticagrelor, healthy volunteers; ref Butler and Teng [2011]; cited from earlier work.
Data set [4] relates to CYP3A4 (4-hydroxylation of midazolam). More on the design: method as in Zhou et al. [2011]. Particulars: read-out: IC50 (inhibition of 4-hydroxylation of midazolam); in vitro; ref Zhou et al. [2011]; cited from earlier work.
The test system of data set [5] is rivaroxaban metabolism in RLMs. The data set is described as follows: In vitro interaction study: inhibition of rivaroxaban metabolism by ticagrelor in RLMs. Format: in vitro ADME, Sprague-Dawley rat. The conditions noted are these: read-out: IC50 (ticagrelor decreased rivaroxaban metabolic clearance). Here is the method: The pooled rat liver microsomes (RLMs) were obtained from 8 rats, which were weighed and homogenized with cold […] phosphate-buffered saline (PBS) containing 0.25 mM sucrose. After centrifuging at 11000 rpm for 15 min, the supernatants were separated and transferred into new tubes for another 15 min centrifugation at 11000 rpm. Then ultracentrifugation was performed at 10000 rpm at 4 °C for 1 h, and the microsomal pellets were resuspended with cold 0.01 mM PBS and stored at −80 °C. The protein concentration of RLMs was determined using the Bradford Protein Assay Kit (Thermo Scientific, Waltham, MA, USA).
Ticagrelor was applied as the inhibitor to determine the half-maximal inhibitory concentration (IC50). The incubation mixture in a total volume of 200 μL contained 0.5 mg/mL of RLMs, 100 mM potassium phosphate buffer (pH 7.4), rivaroxaban (20 μM), ticagrelor (1, 2.5, 5, 10, 25, 50 and 100 μM) and 1 mM NADPH. After preincubation in a shaking water bath at 37 °C for 5 min, NADPH was added to initiate the reaction in a final volume of 200 μL. […]
The GraphPad (version 8.0; GraphPad Software Inc., San Diego, CA, USA) was applied to calculate IC50 and plot plasma concentration-time curves. The pharmacokinetic parameters using non-compartmental analysis were calculated by DAS (version 3.2.8; Wenzhou Medical University, China). […]

On to `COC(=O)[C@H](c1ccccc1Cl)N1CCc2sccc2C1` [clopidogrel], for which, in data set [1], the non-CABG major bleeding is reported as 3.8% and the non-procedure-related major bleeding was 2.3%.

As for `C[C@H]1O[C@@H](O[C@H]2[C@@H](O)C[C@H](O[C@H]3[C@@H](O)C[C@H](O[C@H]4CC[C@@]5(C)[C@H](CC[C@@H]6[C@@H]5C[C@@H](O)[C@]5(C)[C@@H](C7=CC(=O)OC7)CC[C@]65O)C4)O[C@@H]3C)O[C@@H]2C)C[C@H](O)[C@@H]1O` [digoxin], in data set [2], the “increase of digoxin AUC” value is listed as 28% and the “increase of digoxin Cmax” value was 75%.

`C#C[C@]1(O)CC[C@H]2[C@@H]3CCc4cc(O)ccc4[C@H]3CC[C@@]21C` [ethinyloestradiol]: in data set [3], the “increase of AUC0–t of ethinyloestradiol” value was 20%, the “increase of Cmax of ethinyloestradiol” value was 31% and the “increase of Cmin of ethinyloestradiol” value is reported as 20%.

Regarding `CCCSc1nc(N[C@@H]2C[C@H]2c2ccc(F)c(F)c2)c2nnn([C@@H]3C[C@H](OCCO)[C@@H](O)[C@H]3O)c2n1` [ticagrelor, Ticagrelor], in data set [4], the pIC50 is […]. Further, in data set [5], the pIC50 was 4.85. Moreover, in data set [1], the non-CABG major bleeding is on record as 4.5% and the non-procedure-related major bleeding is 3.1%.

The record behind these values is PMC7470163, “Effects of ticagrelor on the pharmacokinetics of rivaroxaban in rats” (Pharmaceutical Biology, 2020).
